Measured values as given in patent EP4545549B1, “INSECT NEUROPEPTIDES” (Solasta Bio Limited, priority 2023, dated 2025).
Where two headings read alike, the source gives them in different places. Residues, ends and D or L forms follow the SMILES beside them.

Experiments:
[1] = system: Amrasca biguttula (leaf hopper); conditions: unformulated SB-P-46; 3 and 7 days after application; Figure 16
Description: (§1) The data has been processed in the ARM Field Trials software under license.

Aphis fabae = conditions: unformulated SB-P-46; for reduction in naturally infested Aphis fabae numbers as a percentage of untreated control crop: vining peas
Description: as §1

Myzus persicae = conditions: unformulated SB-P-46; leaf dip; mortality assessed at 72, 96 and 120 hours; compared to vehicle and Spirotetramat; Figures 6 and 7
Protocol: The assay was carried out based on IRAC susceptibility test method 019 (https://irac-online.org/methods/aphids-adultnymphs/).
Dip a 2.5 cm leaf disc into 3 ml of treatment solution allowing the treatment to coat the leaf. Leave the disc to dry for 1 hour and place onto the set agar. Place insects (aphids) onto each of the leaf discs. Each unit is sealed with a close-fitting, ventilated lid. Place the agar dishes in a small plastic tray lined with moist tissue paper and ensure the water trays in the bottom of the incubator are filled with clean water and place within the incubator. An assessment of mortality is made at 72, 96 and 120 hours. Leaf dip assays were performed with unformulated SB-P-46, and compared to a negative control vehicle and a current commercial insecticide Spirotetramat.

Bumblebee = test: Bee oral toxicity test (adapted from OECD Test No. 247: Bumblebee, Acute Oral Toxicity Test); format: in vivo; conditions: after 96 hours of application; compared with sucrose or vehicle and Imidacloprid; Figure 10
Protocol: Bee oral testing protocol was carried out adapted from OECD Test No. 247: Bumblebee, Acute Oral Toxicity Test. The toxicity of SB-P-46 was compared with a negative control of sucrose or vehicle, and with a current commercial insecticide Imidacloprid.

Aphis gossypii = conditions: Greece; cotton; unformulated SB-P-46; counted 3 days following application; Figure 14
Description: as §1
AgriScience conducted a field trial in Greece, investigating the efficacy of insecticidal peptides on aphids on cotton crop.

## CC(C)C[C@H](NC(=O)[C@H](CCCNC(=N)N)NC(=O)[C@@H]1CCCN1C(=O)[C@H](CO)NC(=O)[C@H](Cc1ccccc1)NC(=O)[C@@H]1CCCN1C(=O)[C@@H]1CCCN1C(=O)[C@H](CO)NC(=O)[C@H](Cc1ccc(O)cc1)NC(=O)[C@@H]1CCCN1C(=O)[C@@H]1CCCN1C(=O)[C@@H](N)CO)C(N)=O [SB-P-46, [Hy]-SPPYSPPFSPRL-[NH2]] (H-SPPYSPPFSPRL-NH2)
[1]
  activity against naturally infested Amrasca biguttula (leaf hopper) in field trials: acted comparably to Flipper insecticide
Aphis fabae; Wigtoft location, counted 4 days following application, Figure 12
  reduction in naturally infested Aphis fabae numbers as a percentage of untreated control crop: similarly efficacious activity
Aphis fabae; field trial 1, Chatteris location, counted 14 days following application, Figure 11
  reduction in naturally infested Aphis fabae numbers as a percentage of untreated control crop: performed comparably to the conventional insecticides Stealth and Teppeki (sprayed as Treatment 1), followed by Aphox (sprayed as Treatment 2)
Aphis fabae; third trial (slot trial), Holbeach location, counted 7 days following application, low aphid infestation, Figure 13
  reduction in naturally infested Aphis fabae numbers as a percentage of untreated control crop: performed as efficaciously as the conventional pesticides tested
Aphis fabae; 4 and 8 days after application, Figure 15
  activity against naturally infested Aphis fabae in field trials: acted comparably to Hallmark Zeon insecticide
Myzus persicae
  activity against Myzus persicae: good activity
Bumblebee
  bee oral toxicity (% survival): far lower toxicity to key pollinator species such as bees compared to broad spectrum chemical insecticides such as Imidacloprid
Aphis gossypii
  reduction in naturally infested Aphis gossypii numbers as a percentage of untreated control crop: performing with close efficacy to the conventional pesticide equivalent tested
